Molecular target: CYP126 (Mycobacterium tuberculosis, UniProt P9WPN9)
Test: biochemical
Type: binding

CYP126, sequence (P9WPN9 whole entry): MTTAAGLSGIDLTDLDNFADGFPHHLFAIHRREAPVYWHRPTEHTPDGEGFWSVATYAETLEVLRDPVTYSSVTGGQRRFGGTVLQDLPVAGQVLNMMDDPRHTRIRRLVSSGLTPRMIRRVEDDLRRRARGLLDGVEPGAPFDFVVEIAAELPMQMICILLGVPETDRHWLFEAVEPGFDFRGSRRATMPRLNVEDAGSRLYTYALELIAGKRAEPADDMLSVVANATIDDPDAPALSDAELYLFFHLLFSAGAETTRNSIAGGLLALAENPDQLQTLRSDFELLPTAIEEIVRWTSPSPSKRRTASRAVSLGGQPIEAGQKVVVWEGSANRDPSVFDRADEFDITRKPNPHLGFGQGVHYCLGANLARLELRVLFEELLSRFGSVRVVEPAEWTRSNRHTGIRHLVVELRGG

With `Oc1c(Cl)c(Cl)c(Cl)c(Cl)c1Cl` [TB23, pentachlorophenol] the Kd was 150 µM.

Reference: PMC4159592 (Chembiochem, 2014)
